From patent publication US20130101615A1, “METHODS FOR PREVENTING OR TREATING A DISEASE OR CONDITION ASSOCIATED WITH MYCOBACTERIUM AVIUM SUBSPECIES PARATUBERCULOSIS” (priority 2005, published 2013)
Several values for one entry are separate records, joined by “and”; a condition that tells them apart may be missing. Equal values may be shown once. Entries after “also recorded” stand apart in the source; their conditions may differ. Read-outs that look alike come from different tables or passages of the source.

Experiments:
MAP ATCC 19698 (bovine) = type: cell-based, Mycobacterium avium subspecies paratuberculosis; conditions: for %-ΔcGI: Example 5
M. avium 101 = type: cell-based, M. avium subspecies avium; conditions: for %-ΔcGI: Example 5
[1] = system: MAP Dominic (ATCC 43545), isolated from human with Crohn's disease; type: cell-based, Mycobacterium avium subspecies paratuberculosis; conditions: for %−ΔcGI (percent decrease in cumulative GI): MAP Dominic
M. avium ATCC 25291 = type: cell-based, M. avium subspecies avium; conditions: M. avium ATCC 25291; for %-ΔcGI: Example 5
MAP = assay: Growth inhibition of MAP (strain not stated or MAP strains in general); conditions: for effect on growth of MAP, in words: MAP strains in general; for %−ΔcGI (percent decrease in cumulative GI): Example 3, strain not stated

Nc1ccc(S(=O)(=O)Nc2ccccn2)cc1 [sulfapyridine]
effect on proliferation / cumulative growth index, in words (MAP ATCC 19698 (bovine); MAP ATCC 19698): little effect on the cumulative growth index of MAP | effect on growth, in words (M. avium 101): inhibited M. avium 101 in a dose-dependent manner

O=C1CCCC(=O)N1O [HPD]
%-ΔcGI (MAP ATCC 19698 (bovine); 1 μg/ml, MAP ATCC 19698): 22% | %-ΔcGI (MAP ATCC 19698 (bovine); 4 μg/ml, MAP ATCC 19698): 7% | %-ΔcGI (MAP ATCC 19698 (bovine); 16 μg/ml, MAP ATCC 19698): −3% | %−ΔcGI (percent decrease in cumulative GI) (MAP ATCC 19698 (bovine); 64 μg/ml, MAP ATCC 19698): −44% | %-ΔcGI (MAP ATCC 19698 (bovine); 64 μg/ml, MAP ATCC 19698): −44% | %-ΔcGI ([1]; 1 μg/ml, MAP Dominic Expt A, Example 5): −5% | %-ΔcGI ([1]; 1 μg/ml, MAP Dominic Expt B, Example 5): 16% | %-ΔcGI ([1]; 4 μg/ml, MAP Dominic Expt A, Example 5): −7% | %-ΔcGI ([1]; 4 μg/ml, MAP Dominic Expt B, Example 5): 6% | %-ΔcGI ([1]; 16 μg/ml, MAP Dominic Expt A, Example 5): −18% | %-ΔcGI ([1]; 16 μg/ml, MAP Dominic Expt B, Example 5): 12% | %−ΔcGI (percent decrease in cumulative GI) ([1]; 64 μg/ml): 46% | %-ΔcGI ([1]; 64 μg/ml, MAP Dominic Expt A, Example 5): −46% | %-ΔcGI ([1]; 64 μg/ml, MAP Dominic Expt B, Example 5): −19% | %-ΔcGI (M. avium ATCC 25291; 1 μg/ml): −4% | %-ΔcGI (M. avium ATCC 25291; 4 μg/ml): 47% | %-ΔcGI (M. avium ATCC 25291; 16 μg/ml): 22% | %-ΔcGI (M. avium ATCC 25291; 64 μg/ml): 21% | effect on growth, in words (M. avium ATCC 25291): no dose-dependent inhibition | effect on growth, in words (M. avium 101): no dose-dependent inhibition | %-ΔcGI (M. avium 101; 1 μg/ml): −12% | %-ΔcGI (M. avium 101; 4 μg/ml): −52% | %-ΔcGI (M. avium 101; 16 μg/ml): −21% | %-ΔcGI (M. avium 101; 64 μg/ml): −36% | effect on growth of MAP, in words (MAP): the most potent inhibitory agent evaluated; also recorded: inhibits the growth of MAP

Sc1ncnc2nc[nH]c12 [6-MP, 6-mercaptopurine]
%−ΔcGI (percent decrease in cumulative GI) (MAP ATCC 19698 (bovine); 4 μg/ml, MAP 19698, Example 3): ~80% and 84% | %−ΔcGI (percent decrease in cumulative GI) ([1]; 4 μg/ml, Example 3): 41% | effect on growth, in words (M. avium ATCC 25291): less susceptibility to 6-MP than to methotrexate | effect on growth, in words (M. avium 101): less susceptibility to 6-MP than to methotrexate | %−ΔcGI (percent decrease in cumulative GI) (MAP; 1 μg/ml): ≥ 43% | %−ΔcGI (percent decrease in cumulative GI) (MAP; 4 μg/ml): ≥ 84% | effect on growth of MAP, in words (MAP): inhibit the growth kinetics of MAP

Nc1ccc(O)c(C(=O)O)c1 [5-ASA, 5-aminosalicylic acid]
effect on proliferation / cumulative growth index, in words (MAP ATCC 19698 (bovine); MAP ATCC 19698): inhibited the proliferation of MAP (ATCC 19698) in a dose-dependent manner | effect on growth, in words (M. avium 101): little effect

Nc1ccc(C(=O)O)c(O)c1 [p-aminosalicylic acid]
effect on proliferation / cumulative growth index, in words (MAP ATCC 19698 (bovine); MAP ATCC 19698): inhibited the proliferation of MAP (ATCC 19698) in a dose-dependent manner

O=C1CCC(N2C(=O)c3ccccc3C2=O)C(=O)N1 (stereo not drawn) [Thalidomide (+), thalidomide]
%-ΔcGI ([1]; 1 μg/ml, MAP (Dominic), Table 4): −4% | %-ΔcGI ([1]; 4 μg/ml, MAP (Dominic), Table 4): 1% | %-ΔcGI ([1]; 16 μg/ml, MAP (Dominic), Table 4): −14% | %-ΔcGI ([1]; 64 μg/ml, MAP (Dominic), Table 4): −58% | %-ΔcGI (M. avium 101; 1 μg/ml): 4% | %-ΔcGI (M. avium 101; 4 μg/ml): −5% | %-ΔcGI (M. avium 101; 16 μg/ml): 16% | %-ΔcGI (M. avium 101; 64 μg/ml): −19% | effect on growth of MAP, in words (MAP): more inhibitory than thalidomide (−)
